Assay results: patent US20260216138A1, “IDENTIFICATION OF OTUD7B INHIBITOR 7BI AND ITS APPLICATION IN REDUCING GROWTH OF NSCLC AND LEUKEMIA CELLS” (The University of North Carolina at Chapel Hill, priority 2023, published 2026)

How the values were obtained:
[1] = tested on: THP1 cells; experiment: Leukemia cell proliferation, THP1; type: cell-based; details: 72 hrs
Experimental: (§1) 2,000 cells from indicated NSLC cell lines were seeded into each well of 96-well plates. Cell viability was measured 3 days post-treatment using MTT assays following manufacturer's instruction. For cell viability assays with inhibitor treatment, 2,000 cells from indicated NSLC and HEK293 cell lines were seeded in 96-well plate. Inhibitor was added the next day at indicated concentration and cell viability was measured after 3-day treatment. For cell proliferation assays in THP1, K562 and HL60 cell lines, 1×10^6 cells from each indicated cell line were seeded in 12.5 cm2 cell culture flask and cells were counted by hemocytometer under microscope at indicated time to monitor cell proliferation. To test inhibitor effects on THP1, K562 and HL60 cell growth, 2×10^5 cells were seeded in 12.5 cm2 cell culture flask. Inhibitor was added the next day at indicated concentrations and cell number was counted after 3 days treatment. Three independent experiments were performed to generate error bars.

[2] = tested on: HEK293 cells; experiment: Cell viability by MTT assay in HEK293 cells; type: cell-based; details: 72 hrs
Experimental: as §1

[3] = target: T1, USP9X (Homo sapiens, UniProt Q93008); experiment: In vitro USP9X deubiquitination assay, K11-linked di-ub cleavage; type: biochemical
T1 construct: USP9X (residues 1551-1970); GST (N, cleaved yes); made in house; host or cells: E. coli BL21-Codon Plus (DE3)-RIL
T1 sequence (Q93008 1551-1970): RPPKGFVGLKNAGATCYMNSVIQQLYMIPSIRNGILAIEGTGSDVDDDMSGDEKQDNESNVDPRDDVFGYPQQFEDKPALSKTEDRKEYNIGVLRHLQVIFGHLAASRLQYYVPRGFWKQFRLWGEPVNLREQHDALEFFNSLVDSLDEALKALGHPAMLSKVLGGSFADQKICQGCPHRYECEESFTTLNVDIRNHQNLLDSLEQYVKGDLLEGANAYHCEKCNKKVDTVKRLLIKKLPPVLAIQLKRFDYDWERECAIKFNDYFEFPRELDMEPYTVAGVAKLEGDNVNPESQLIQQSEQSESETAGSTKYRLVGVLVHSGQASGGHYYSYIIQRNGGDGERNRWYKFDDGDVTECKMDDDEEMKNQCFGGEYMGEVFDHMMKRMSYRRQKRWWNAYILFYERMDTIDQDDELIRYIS
From the text: (§2) OTUD7B (residues 56-446), OTUD7A (residues 1-462), USP21 (residues 196-565), and USP9X (residues 1551-1970) proteins were expressed in E. Coli BL21-Codon Plus (DE3)-RIL cells. Through an N-terminal GST tag, the DUBs were purified by affinity chromatography using glutathione sepharose 4B (GS4B) resin. Following the liberation of the DUB from the GST tag. the DUBs were subjected to size exclusion chromatography (SEC). To form the K11-linked di-ub, individual ubiquitins (K11R-substituted donor Ub and ΔGG acceptor ubiquitin) were purified and fluorescently-labeled on an N-terminal cysteine using either Cy3- (donor) or Cy5-maleimide (acceptor). The different ubiquitins were then added to a mixture containing UBA1, UBE2S, and MgATP to form di-ub. After an overnight incubation at room temperature, UBE2S was removed by cation-exchange chromatography and the di-ub was purified by SEC. These proteins were used to monitor DUB activity in the presence or absence of the various inhibitors. The inhibitors were incubated with DUBs in a reaction buffer (20 mM Hepes pH=8.0, 200 mM NaCl, 0.25 mg/mL BSA and 0.005% Tween-20) for 5 min at room temperature and then 0.5 uM fluorescently-labeled di-ub (K11-linked) was added to start the reaction. 5×SDS-PAGE loading buffer was used to quench the reaction at the indicated time point. […] Mono-ubiquitin was quantified to generate an IC50 value. […]

[4] = tested on: OTUD7B; experiment: OTUD7B protein levels by immunoblot; type: cell-based; details: 16 hrs
Experimental: Cells were harvested and lysed in EBC buffer (50 mM Tris pH 7.5, 120 mM NaCl, 0.5% NP-40) supplemented with protease inhibitor cocktail (EDTA-free, mini-tablet) (Bimake) and phosphatase inhibitor cocktail (Bimake) by rotating in the cold room for 10 min followed by high-speed centrifugation at 4° C. The protein concentrations in supernatants of whole cell lysates were measured by NanoDrop OneC using the Bio-Rad Bradford protein assay reagent. Equal amounts of whole cell lysates were resolved on SDS-PAGE and immunoblotted with indicated antibodies. For immunoprecipitation analysis, 1 mg of total cell lysate was incubated with the indicated beads for 3-4 hr at 4° C. The recovered immuno-complexes were washed thoroughly three times with NETN buffer (20 mM Tris, pH 8.0, 100 mM NaCl, 1 mM EDTA and 0.5% NP-40) before being resuspended in SDS sample buffer and resolved on SDS-PAGE and immunoblotted with indicated antibodies.

[5] = target: T2, USP21 (Homo sapiens, UniProt Q9UK80); experiment: In vitro USP21 deubiquitination assay, K11-linked di-ub cleavage; type: biochemical; details: 80 nM USP21, 10 min
T2 construct: USP21 (residues 196-565); GST (N, cleaved yes); made in house; host or cells: E. coli BL21-Codon Plus (DE3)-RIL
T2 sequence (Q9UK80 196-565): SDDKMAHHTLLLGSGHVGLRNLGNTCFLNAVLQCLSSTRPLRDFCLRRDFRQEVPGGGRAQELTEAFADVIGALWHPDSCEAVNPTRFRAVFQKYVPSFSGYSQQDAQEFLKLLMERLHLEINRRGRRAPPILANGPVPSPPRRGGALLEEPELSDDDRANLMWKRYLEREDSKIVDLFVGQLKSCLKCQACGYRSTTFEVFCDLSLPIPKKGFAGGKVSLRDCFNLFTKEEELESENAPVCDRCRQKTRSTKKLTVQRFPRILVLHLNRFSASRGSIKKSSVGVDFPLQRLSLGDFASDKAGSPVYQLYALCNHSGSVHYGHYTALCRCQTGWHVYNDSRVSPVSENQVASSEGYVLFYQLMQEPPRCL
From the text: as §2

Question: Which results are given for Cc1cc(NC(=O)c2cnn(C)c2C(=O)Nc2cc(C)nn2C2CCCC2)n(C2CCCC2)n1 [7Bi]?
Answer: cell proliferation [1]: reduced proliferation; cell growth (MTT) [2]: reduced growth; inhibition of USP9X [3]: failed to inhibit; OTUD7B protein levels ([4]; A549 cells): did not significantly affect OTUD7B protein levels; OTUD7B protein levels ([4]; HEK293 cells): did not significantly affect OTUD7B protein levels; inhibition of USP21 [5]: failed to inhibit
